# Assay results from patent US20120172351A1, “NOVEL FUSED CYCLIC COMPOUND AND USE THEREOF” (priority 2009, published 2012).
# Counter-ions that a name gives are not always drawn. Marks after values point to notes of the source that are not given here.
# Legend:
# human derived GPR40 = biological target: T1, human derived GPR40 (Homo sapiens, UniProt O14842); assay: Agonist action on human derived GPR40: change of intracellular calcium concentration in CHO cells (FLIPRtetra); type: cell-based; conditions: agonist activity of compound at 1 μM, relative to 10 μM γ linolenic acid as 100%, wave peak height; CHO cells stably expressing human GPR40
# T1 construct: expressed in transfected cells
# T1 sequence (O14842 whole entry): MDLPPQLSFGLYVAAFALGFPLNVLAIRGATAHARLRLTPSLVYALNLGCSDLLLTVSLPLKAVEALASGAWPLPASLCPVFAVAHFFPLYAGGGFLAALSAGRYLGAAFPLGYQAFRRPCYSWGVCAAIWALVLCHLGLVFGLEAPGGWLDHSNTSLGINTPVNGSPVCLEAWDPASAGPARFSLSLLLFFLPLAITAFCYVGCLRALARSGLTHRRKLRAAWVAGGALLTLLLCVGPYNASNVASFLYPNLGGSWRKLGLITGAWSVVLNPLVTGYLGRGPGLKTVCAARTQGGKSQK
# Experimental: The CHO cell lines that stably expressed human derived GPR40 were used for the determination of the agonist activity. Unless particularly specified, the CHO cell lines were cultured in an α-MEM medium (Wako Pure Chemical Industries, Ltd.) containing 10% dialyzed fetal bovine serum (TRA Thermo Electron).
# The cells cultured almost to confluent on the day before assay were rinsed with PBS (Invitrogen), detached with 0.5 mM EDTA (Wako Pure Chemical Industries, Ltd.), and recovered by centrifugation. The obtained cells were counted, diluted to 2×10^5 cells per 1 mL medium, dispensed by 40 μL per well to a 384 well black clear bottomplate (PE Biosystems), and cultured overnight in a CO2 incubator. Various test compounds were added to CHO cells prepared as mentioned above, and change of intracellular calcium concentration was measured using FLIPRtetra (Molecular Device). For the measurement by this device, a Calcium 4 assay kit (Molecular Devices: R8142) was used.
# First, fatty acid free BSA at the final concentration of 0.1% was added to the buffer attached to the kit to prepare an assay buffer. Using the assay buffer, a loading solution with Fluo4 was prepared such that the final concentration of fatty acid free BSA was 0.1% and the final concentration of probenecid was 625 μM. On the other hand, a test compound was diluted with the assay buffer to a given concentration, and dispensed to the polypropylene 384-well plate (sample plate). The medium was removed from the cell culture plate, and the loading solution with Fluo4 was dispensed by 25 μL. After culture in a CO2 incubator at 37° C. for 40 min, a sample plate and a cell plate were simultaneously set on the FLIPRtetra, various test compounds were added by 25 μL according to the program of the device, and change of intracellular calcium concentration was measured. The agonist activity of each compound at 1 μM was calculated as a relative activity value to the activity of 10 μM γ linolenic acid as 100% from the wave peak height.
# Wistar fatty rat = assay: Oral glucose tolerance test in Wistar fatty rat; type: in vivo; conditions: female Wistar fatty rats, 1 mg/kg oral, glucose 1 g/kg 1 hr after dosing; glucose AUC 0-120 min vs control group
# Experimental: The blood glucose increase suppressive action of the compound of the present invention was evaluated by an oral glucose tolerance test using Wistar fatty rat (TAKEDA RABICS).
# The animal used was female Wistar fatty rat (prepared by TAKEDA RABICS, 18- to 22-week-old). The rats were bred under free access to a feed (CE-2, sold by CLEA Japan, Inc.).
# Female Wistar fatty rats (18- to 22-week-old) were fasted for 19-21 hr, and the body weight was measured. Heparin (Ajinomoto Co., Inc.) was added as an anticoagulant, and aprotinin (SIGMA) was added as a protease inhibitor, and the blood was collected from the tail vein. 0.5% Methylcellulose (control group) or a 0.5% methylcellulose suspension of a test compound (1 mg/kg body weight) was orally administered to the rats of each group (6 per group) at 5 ml/kg and, 1 hr after the administration, a glucose solution (Otsuka Pharmaceutical Factory, Inc.) was orally administered at 1 g/5 ml/kg. […] The plasma glucose of the obtained plasma were measured by automatic analyzer 7080 (HITACHI). The glucose AUC was calculated from the obtained values by the formulas described in Experimental Example 2. Moreover, blood glucose lowering rate was calculated from the obtained AUC by the formulas described in Experimental Example 2. Statistical significance versus control was analyzed by Student's t-test.
# N-STZ-1.5 rat = assay: Oral glucose tolerance test in N-STZ-1.5 rat (type 2 diabetes model); type: in vivo; conditions: male N-STZ-1.5 rats, 1 mg/kg oral, glucose 1.5 g/kg 1 hr after dosing; for Blood glucose lowering rate: glucose AUC 0-120 min vs control group; for Insulin increasing rate: insulin AUC 0-120 min vs control group
# Experimental: The blood glucose increase suppressive action and insulin secretagogue action of the compound of the present invention were evaluated by an oral glucose tolerance test using N-STZ-1.5 rat (TAKEDA RABICS).
# Streptozotocin (120 mg/kg) was subcutaneously administered to male Wistar Kyoto rats (1-2 days old) to prepare N-STZ-1.5 rat which is a type 2 diabetes model. The rats were bred under free access to a feed (CE-2, sold by CLEA Japan, Inc.).
# Male N-STZ-1.5 rats (21-week-old) were fasted for 19-21 hr, and the body weight was measured. Heparin (Ajinomoto Co., Inc.) was added as an anticoagulant, and aprotinin (SIGMA) was added as a protease inhibitor, and the blood was collected from the tail vein. 0.5% Methylcellulose (control group) or a 0.5% methylcellulose suspension of a test compound (1 mg/kg body weight) was orally administered to the rats of each group (6 per group) at 5 ml/kg and, 1 hr after the administration, a glucose solution (Otsuka Pharmaceutical Factory, Inc.) was orally administered at 1.5 g/5 ml/kg. The blood was collected from the tail vein immediately before glucose loading (0 min value) and 10, 30, 60, 120 min thereafter. The blood was centrifuged and the plasma was separated. The plasma glucose and insulin concentration of the obtained plasma were measured. The plasma glucose was measured by automatic analyzer 7080 (HITACHI), and the insulin concentration was measured by RAT INSULIN RIA KIT (LINCO Research). The glucose AUC and insulin AUC were calculated from the obtained values by the following formulas. Moreover, blood glucose lowering rate and insulin increasing rate were calculated from the obtained AUC by the following formulas. Statistical significance versus control was analyzed by Student's t-test or Aspin-Welch test.
# {(0 min plasma glucose)+(10 min plasma glucose)}×10/2+{(10 min plasma glucose)+(30 min plasma glucose)}×20/2+{(30 min plasma glucose)+(60 min plasma glucose)}×30/2+{(60 min plasma glucose)+(120 min plasma glucose)}×60/2
# {(0 min plasma insulin)+(10 min plasma insulin)}×10/2+{(10 min plasma insulin)+(30 min plasma insulin)}×20/2+{(30 min plasma insulin)+(60 min plasma insulin)}×30/2+{(60 min plasma insulin)+(120 min plasma insulin)}×60/2
# blood glucose lowering rate: [(test compound administration group glucose AUC/control group glucose AUC)−1]×100
# insulin increasing rate: [(test compound administration group insulin AUC/control group […] AUC)-1]×100
melting point [°C],activity (%) (human derived GPR40),Compound,Blood glucose lowering rate (Wistar fatty rat) [%**],Blood glucose lowering rate (N-STZ-1.5 rat),Insulin increasing rate (N-STZ-1.5 rat)
154,–,"Cc1nc(N2CCOCC2)nc(C)c1-c1cccc(CNc2ccc3c(c2)OC[C@H]3CC(=O)O)c1C (as salt: salt) [Example 242, 1,3-dihydroxy-2-(hydroxymethyl)propan-2-aminium [(3S)-6-({3[4,6-dimethyl-2-(morpholin-4-yl)pyrimidin-5-yl]-2-methylbenzyl}amino)-2,3-dihydro-1-benzofuran-3-yl]acetate]",–,–,–
176,128,"Cc1cc(OC2CCS(=O)(=O)CC2)cc(C)c1-c1cccc2c1OC[C@H]2Nc1ccc2c(c1)OC[C@H]2CC(=O)O [Example 9, [(3S)-6-{[(3S)-7-{4-[(1,1-dioxidotetrahydro-2H-thiopyran-4-yl)oxy]-2,6-dimethylphenyl}-2,3-dihydro-1-benzofuran-3-yl]amino}-2,3-dihydro-1-benzofuran-3-yl]acetic acid]",−15.8,–,–
146,129,"CCCN(c1cc(C)ccn1)c1cccc2c1OC[C@H]2Nc1ccc2c(c1)OC[C@H]2CC(=O)O [Example 82, [(3S)-6-({(3S)-7-[(4-methylpyridin-2-yl)(propyl)amino]-2,3-dihydro-1-benzofuran-3-yl}amino)-2,3-dihydro-1-benzofuran-3-yl]acetic acid]",–,–,–
169,126,"Cc1nc(N2CCCC2)nc(C)c1-c1cccc2c1OC[C@H]2Nc1ccc2c(c1)OC[C@H]2CC(=O)O [Example 79, [(3S)-6-({(3S)-7-[4,6-dimethyl-2-(pyrrolidin-1-yl)pyrimidin-5-yl]-2,3-dihydro-1-benzofuran-3-yl}amino)-2,3-dihydro-1-benzofuran-3-yl]acetic acid]",–,–,–
169,124,"Cc1cc(OCCCS(C)(=O)=O)cc(C)c1-c1cccc2c1OC[C@H]2Nc1ccc2c(c1)OC[C@H]2CC(=O)O [Example 7, [(3S)-6-{[(3S)-7-{2,6-dimethyl-4-[3-(methylsulfonyl)propoxy]phenyl}-2,3-dihydro-1-benzofuran-3-yl]amino}-2,3-dihydro-1-benzofuran-3-yl]acetic acid]",–,−20.5%**,+39.5%^$
–,–,"Cc1nc(N2CCOCC2)nc(C)c1-c1cccc2c1OC[C@H]2Nc1ccc2c(c1)OC[C@H]2CC(=O)O.O [Example 77-1, Hydrate of [(3S)-6-({(3S)-7-[4,6-dimethyl-2-(morpholin-4-yl)pyrimidin-5-yl]-2,3-dihydro-1-benzofuran-3-yl}amino)-2,3-dihydro-1-benzofuran-3-yl]acetic acid]",–,−13.6%^$,+40.2%^$
161,131,"Cc1cc(OC[C@@H]2CCC(=O)N2)cc(C)c1-c1cccc2c1OC[C@H]2Nc1ccc2c(c1)OC[C@H]2CC(=O)O [Example 8, [(3S)-6-{[(3S)-7-(2,6-dimethyl-4-{[(2S)-5-oxopyrrolidin-2-yl]methoxy}phenyl)-2,3-dihydro-1-benzofuran-3-yl]amino}-2,3-dihydro-1-benzofuran-3-yl]acetic acid]",–,–,–
168,–,"Cc1nc(N2CCOCC2)nc(C)c1-c1cccc2c1OC[C@H]2Nc1ccc2c(c1)OC[C@H]2CC(=O)O [Example 77, [(3S)-6-({(3S)-7-[4,6-dimethyl-2-(morpholin-4-yl)pyrimidin-5-yl]-2,3-dihydro-1-benzofuran-3-yl}amino)-2,3-dihydro-1-benzofuran-3-yl]acetic acid]",–,–,–

Compound,melting point [°C],activity (%) (human derived GPR40),Blood glucose lowering rate (Wistar fatty rat) [%**],Blood glucose lowering rate (N-STZ-1.5 rat),Insulin increasing rate (N-STZ-1.5 rat)
"CCOc1nc2ccc(F)c(F)c2n1-c1cccc2c1OC[C@H]2Nc1ccc2c(c1)OC[C@H]2CC(=O)[O-].[Na+] [Example 33, sodium [(3S)-6-{[(3S)-7-(2-ethoxy-6,7-difluoro-1H-benzimidazol-1-yl)-2,3-dihydro-1-benzofuran-3-yl]amino}-2,3-dihydro-1-benzofuran-3-yl]acetate]",–,109,−19.5,–,–
